ChEMBL document CHEMBL6074683, “Design, synthesis and investigation of biological activity and mechanism of fluoroaryl-substituted derivatives at the FL118 position 7” (Eur J Med Chem, 2025)

Assays:
Assay type in all cases: functional, cell-based
HCT-116 = experiment: Cytotoxicity against human HCT-116 cells incubated for 72 hrs by MTT assay; conditions: HCT-116, 72 h
A549 = experiment: Cytotoxicity against human A549 cells incubated for 72 hrs by MTT assay; conditions: A549, 72 h
HeLa = experiment: Cytotoxicity against human HeLa cells incubated for 72 hrs by MTT assay
HepG2 = experiment: Cytotoxicity against human HepG2 cells incubated for 72 hrs by MTT assay; conditions: HepG2, 72 h

Structure (SMILES) | IC50 (HCT-116) [nM] | IC50 (A549) [nM] | IC50 (HeLa) [nM] | IC50 (HepG2) [nM]
CC[C@@]1(O)C(=O)OCc2c1cc1n(c2=O)Cc2c-1nc1cc3c(cc1c2-c1ccc(F)c(C)c1)OCO3 | 25.5 | 29.4 | 36.6 | 36.7
CC[C@@]1(O)C(=O)OCc2c1cc1n(c2=O)Cc2c-1nc1cc3c(cc1c2-c1cccc(F)c1)OCO3 | 150 | 40 | 34.7 | 155
CC[C@@]1(O)C(=O)OCc2c1cc1n(c2=O)Cc2c-1nc1cc3c(cc1c2-c1cccc(OC(F)(F)F)c1)OCO3 | 14.6 | 26.4 | 12.8 | 16.8
CC[C@@]1(O)C(=O)OCc2c1cc1n(c2=O)Cc2c-1nc1cc3c(cc1c2-c1ccc(F)cc1)OCO3 | 32.7 | 19.8 | 11.1 | 46.3
CC[C@@]1(O)C(=O)OCc2c1cc1n(c2=O)Cc2c-1nc1cc3c(cc1c2-c1ccc(F)c(F)c1)OCO3 | 48.8 | 9 | 39.7 | 49.9
CC[C@@]1(O)C(=O)OCc2c1cc1n(c2=O)Cc2c-1nc1cc3c(cc1c2-c1ccc(C)c(F)c1)OCO3 | 50.3 | 48.2 | 22.1 | 36.9
CC[C@@]1(O)C(=O)OCc2c1cc1n(c2=O)Cc2c-1nc1cc3c(cc1c2-c1cccc(C(F)(F)F)c1)OCO3 | 73.6 | 82.9 | 20.2 | 35
CCOc1ccc(-c2c3c(nc4cc5c(cc24)OCO5)-c2cc4c(c(=O)n2C3)COC(=O)[C@]4(O)CC)cc1F | 399 | 352 | 42.2 | 206
